Experimental findings from patent US6369066B1, “Substituted 1,3-oxathiolanes with antiviral properties” (BioChem Pharma, Inc., priority 1990, dated 2002) are described below.

Each structure is given as a SMILES string. ≈ marks a conversion by molar mass, not a printed value.

What all share (format): cell-based
The subject of data set [1] is cord blood mononuclear cells (CBM). In words: Cytotoxicity (CD50) reported with CBM assay. As for the experimental part: Assays on cord blood mononuclear cells were done substantially as described in Gu et al., J. Virol.
In short, viruses (HTLV-IIIB) that had initially been grown on MT-4 cells were passaged onto phytohemaglutinin-prestimulated cord blood mononuclear cells (CBM). For subsequent analysis, samples of CBM (5×10^5 cells per mL) were pretreated with various concentrations of the different compounds for 4 h and were then inoculated with CBL-grown HIV-1 at a multiplicity of infection of 1.0 in the concentration of the compound used for the pretreatment. Fresh medium, including the appropriate concentration of the compound was added three times weekly, and fresh phytohemaglutinin-prestimulated CBM (5×10^5 cells per mL) were added at 2-day intervals. […] 66: 12-19.

The next data set relates to C8166 cells. In words: Cytotoxicity (CD50) reported with syncytium formation assay. The following applies: syncytium formation table.
The next data set has as its system Jurkat. In words: Cell culture inhibitory dose (CCID50) in Jurkat. As to conditions: cell counting, trypan blue exclusion, 7 days post drug treatment. As for the experimental part: (§1) Evaluation of Cell Culture Inhibitory Dose (CCID50)
(§2) Cell growth was determined by cell counting and viability by trypan blue exclusion 7 days post drug treatment. CCID50 is expressed as the drug concentration which inhibits 50% of cell growth.

The subject of a further data set is HIV-1 strain RF. The experiment in a line: Formazan (MTT) assay on MT-4 cells, anti-HIV-1 antiviral activity. As to conditions: Human immunodeficiency virus 1, MT4, 168 h, MT-4 cells infected with HIV-1 strain RF, 7 days, read-out: IC50 (50% anti-viral dose, ID 50%). As for the experimental part: Formazan Assay on MT-4 and 3TC™-Resistant Cell Lines
(§3) Anti-HIV-1 antiviral activity was determined in MT-4 calls and MT-4 cells that have been made resistant to 3TC™. A suspension of cells (approximately 10^6 cells/ml) in RPMI 1640 growth medium was infected with HIV-1 strain RF at a M.O.I. of 10^−3 infectious units/cell. An uninfected cell suspension was prepared in parallel to evaluate drug-induced cytotoxicity. The two suspensions were incubated for 90 minutes at room temperature. Test compounds were serially diluted in 10-fold decrements from 100 μg/ml to 0.01 μg/ml (final concentrations in two 96 well microtitre plates. 20 μl of infected cell suspension were inoculated into each well of one of the plates (anti-viral), while 20 μl of uninfected cell suspension were added to each well of the second plate (cytotoxicity). The plates were then incubated for 7 days at 37° C. After incubation, 10 μl of 3-(4,5-dimethylthiazol-2-yl)-2,5-diphenyltetrazolium bromide (MTT) at 20 mg/ml was added to all wells and the plates incubated for a further 90 minutes at 37° C.
150 μl of 10% (v/v) alcoholic Triton X-100 was then added and the cells resuspended. After 15 minutes at room temperature, the plates were analyzed in a Multiskan MC reader at 405 nm. Conversion of yellow MMT to its formazan derivative is maximum in uninfected cells, and absent in untreated infected cells. The optical density values for the cytotoxicity controls and the antiviral test wells were graphically plotted and the dose of compounds required to inhibit the conversion of MMT to 50% of the untreated uninfected controls was calculated. In this way, both the 50% cytotoxic dose (CD 50%) and the 50% anti-viral dose (ID 50%) can be calculated.

A further data set relates to HIV-1 (HTLV-IIIB). In words: CBM assay, IC50 from RT levels in culture fluids. As to conditions: Human immunodeficiency virus 1. The procedure:
Assays on cord blood mononuclear cells were done substantially as described in Gu et al., J. Virol. (1992), 66:7128-7135.
(§4) In short, viruses (HTLV-IIIB) that had initially been grown on MT-4 cells were passaged onto phytohemaglutinin-prestimulated cord blood mononuclear cells (CBM). For subsequent analysis, samples of CBM (5×10^5 cells per mL) were pretreated with various concentrations of the different compounds for 4 h and were then inoculated with CBL-grown HIV-1 at a multiplicity of infection of 1.0 in the concentration of the compound used for the pretreatment. Fresh medium, including the appropriate concentration of the compound was added three times weekly, and fresh phytohemaglutinin-prestimulated CBM (5×10^5 cells per mL) were added at 2-day intervals. The calculation of IC50 was determined on the basis of RT levels in culture fluids as described in Gao et al., (1992), J. Virol. 66: 12-19.

The subject of another data set is H9. In words: Cell culture inhibitory dose (CCID50) in H9. As to conditions: cell counting, trypan blue exclusion, 7 days post drug treatment. As for the experimental part: as §1, §2
The subject of the next data set is MT-4. The experiment in a line: Cell culture inhibitory dose (CCID50) in MT-4. As to conditions: cell counting, trypan blue exclusion, 7 days post drug treatment. The procedure: as §1, §2
A further data set deals with HTLV-IIIb. In words: HIV-1 acutely infected cell lines, p24 antigen levels. The following applies: p24 antigen at day 6; for ID50 CEM: CEM cells infected with HTLV-IIIb; for ID50 H9: H9 cells infected with HTLV-IIIb; for ID50 Jurkat: Jurkat cells infected with HTLV-IIIb; for ID50 MT-4: MT-4 cells infected with HTLV-IIIb; for ID50 U937: U937 cells infected with HTLV-IIIb. As for the experimental part: Determination of IC50 ([…]) in HIV-1 Acutely Infected Cell Lines in the Presence of Differet Antiviral Compounds
Various cell lines were infected with HTLV-IIIb (TCID50=200) and then cultured with various concentrations of drug. IC50 was determined by measuring p24 antigen levels in the supernatant of cultures at day 6 of infection.

Another data set concerns HIV-1 HXB2D. In words: IC50 in CBMCs with constructed virus HXB2D. As to conditions: Human immunodeficiency virus 1, read-out: IC50 HXB2D. As for the experimental part: as §4
Determination of IC50 (μM) in Different Mutated Isolates of HIV-1 in the Presence of Different Antiviral Compounds
The procedure is similar to the procedure used in the CBM assay, with the exception that constructed virus and construted mutated virus were used.
The constructed virus HXB2D-65 correspond to the ddC resistance mutation and the constructed virus HXB2D-184 correspond to the 3TC™ and FTC resistance mutation.

Another data set deals with CBMCs. In words: Cell culture inhibitory dose (CCID50) in CBMCs. The following applies: cell counting, trypan blue exclusion, 7 days post drug treatment. As for the experimental part:
as §1, §2

In another data set the test system is U937. In words: Cell culture inhibitory dose (CCID50) in U937. As to conditions: cell counting, trypan blue exclusion, 7 days post drug treatment. The procedure:
as §1, §2

The test system of another data set is MT-4 cells. In words: Formazan (MTT) assay, drug-induced cytotoxicity in uninfected MT-4 cells. The following applies: human, 7 days. As for the experimental part:
as §3, with “A suspension of cells (approximately 10^6 cells/ml) in RPMI 1640 growth medium was infected with HIV-1 strain RF at a M.O.I. of 10^−3 infectious units/cell.” left out
150 μl of 10% (v/v) alcoholic Triton X-100 was then added and the cells resuspended. After 15 minutes at room temperature, the plates were analyzed in a Multiskan MC reader at 405 nm. […] The optical density values for the cytotoxicity controls and the antiviral test wells were graphically plotted and the dose of compounds required to inhibit the conversion of MMT to 50% of the untreated uninfected controls was calculated.

`Nc1nc(=O)n([C@@H]2CO[C@H](CO)S2)cc1F` [compound 4, 2S-hydroxymethyl-4S-(5′-fluorocytosin-1′-yl)-1,3-oxathiolane] displayed a CD50 in data set [1] above 23 µg/mL. The compound also came in with a CD50 with C8166 cells above 100 µg/mL. In the data set on Jurkat, the “CCID50 Jurkat” value was above 500 µM. Further, in the data set with HIV-1 strain RF, the IC50 is 2.9 µg/mL (≈ 11.7 µM). Further, the half-maximal inhibitory concentration (IC50) with HIV-1 (HTLV-IIIB) lay in the range of 0.02 to 0.05 µg/mL (≈ 0.0809 to 0.202 µM). Further, the “CCID50 H9” value in the data set with H9 was above 500 µM. In addition, in the data set with MT-4, the “CCID50 MT-4” value was above 500 µM. For the same compound, in the data set with HTLV-IIIb, the “ID50 CEM” value turned out to be 0.3 µg/mL (≈ 1.21 µM), the “ID50 H9” value amounted to 1.0 µg/mL (≈ 4.04 µM), the “ID50 Jurkat” value worked out at 6.0 µg/mL (≈ 24.3 µM) and the “ID50 MT-4” value was determined as 3.2 µg/mL (≈ 12.9 µM). Besides, the “ID50 U937” value with HTLV-IIIb was found to be 0.4 µg/mL (≈ 1.62 µM). For the same compound, in the data set with HIV-1 HXB2D, the IC50 is 3000 nM. The “CCID50 CBMCs” value with CBMCs was above 500 µM. Moreover, the “CCID50 U937” value in the data set with U937 was above 500 µM. Besides, in the data set with MT-4 cells, the “CD50 (50% cytotoxic dose)” value turned out to be 100 µg/mL.

Turning to `Nc1nc(=O)n([C@H]2CO[C@@H](CO)S2)cc1F` [compound 3, 2R-hydroxymethyl-4R-(5′-fluorocytosin-1′-yl)-1,3-oxathiolane], the CD50 in [1] is above 23 µg/mL. Also, the CD50 in the data set with C8166 cells is above 100 µg/mL. Moreover, in the data set on Jurkat, the “CCID50 Jurkat” value was above 500 µM. The IC50 in the data set with HIV-1 strain RF amounted to 6 µg/mL (≈ 24.3 µM). This compound also came in with an IC50 in the data set with HIV-1 (HTLV-IIIB) of 0.002 to 0.05 µg/mL (≈ 0.00809 to 0.202 µM). The “CCID50 H9” value in the data set with H9 is above 500 µM. In addition, the “CCID50 MT-4” value in the data set on MT-4 is above 500 µM. Also, in the data set with HTLV-IIIb, the “ID50 CEM” value was 0.2 µg/mL (≈ 0.809 µM), the “ID50 H9” value came out at 0.1 µg/mL (≈ 0.404 µM), the “ID50 Jurkat” value was determined as 3.5 µg/mL (≈ 14.2 µM) and the “ID50 MT-4” value worked out at 3.0 µg/mL (≈ 12.1 µM). Moreover, the “ID50 U937” value in the data set with HTLV-IIIb was found to be 0.6 µg/mL (≈ 2.43 µM). Also, the IC50 in the data set on HIV-1 HXB2D is 3000 nM. The “CCID50 CBMCs” value in the data set on CBMCs is above 500 µM. Also, the “CCID50 U937” value in the data set on U937 is above 500 µM. In the data set on MT-4 cells, the “CD50 (50% cytotoxic dose)” value was above 100 µg/mL.

Regarding `Nc1ccn([C@@H]2CO[C@H](CO)S2)c(=O)n1` [Compound #2, 2S-hydroxymethyl-4S-(cytosin-1′-yl)-1,3-oxathiolane], in data set [1], the CD50 is above 23 µg/mL. In the data set on C8166 cells, this compound showed a CD50 above 100 µg/mL. For the same compound, the “CCID50 Jurkat” value with Jurkat came out at 11 µM. Besides, the IC50 with HIV-1 strain RF worked out at 4.4 µg/mL (≈ 19.2 µM). In the data set with HIV-1 (HTLV-IIIB), the IC50 was in the range of 0.03 to 1.22 µg/mL (≈ 0.131 to 5.32 µM). Moreover, in the data set with H9, the “CCID50 H9” value is above 500 µM. In the data set on MT-4, the “CCID50 MT-4” value was above 500 µM. Moreover, in the data set with HTLV-IIIb, the “ID50 CEM” value turned out to be 0.4 µg/mL (≈ 1.74 µM), the “ID50 H9” value came to 0.075 µg/mL (≈ 0.327 µM), the “ID50 Jurkat” value was found to be 1.8 µg/mL (≈ 7.85 µM) and the “ID50 MT-4” value amounted to 0.9 µg/mL (≈ 3.93 µM). In the data set with HTLV-IIIb, the “ID50 U937” value amounted to 0.3 µg/mL (≈ 1.31 µM). Further, in the data set with HIV-1 HXB2D, the IC50 was 100 nM. The “CCID50 CBMCs” value in the data set on CBMCs turned out to be 105 µM. In addition, the “CCID50 U937” value with U937 was 22 µM. Also, in the data set on MT-4 cells, the “CD50 (50% cytotoxic dose)” value is above 100 µg/mL.

One may read the IC50 as the concentration needed to halve the response being measured.
